The values below come from publication PMC6274259, “New 3-Cyano-2-Substituted Pyridines Induce Apoptosis in MCF 7 Breast Cancer Cells” (Molecules, 2016).

For experiment [1], the system named is SK-OV-3 human ovarian carcinoma cell line. Put plainly: WST-1 cell viability assay, SK-OV-3. Conditions: Homo sapiens, SK-OV-3; WST-1, 24 h treatment, mean ± S.D of three independent experiments. The format is cell-based. The text has this: (§1) The synthesized compounds were screened for their cytotoxicity on five cancer cell lines, namely SK-OV-3, MCF-7, MDA-MB-231, HCT-116 and RKO, using a WST colorimetric assay. The assay principle is based upon the reduction of the tetrazolium salt WST-1 to formazan by cellular mitochondrial dehydrogenases present in viable cells. […] Among the latter compounds the benzohydrazide derivative 9a emerged with the lowest IC50 in this study against MCF-7 cells compared to 5-FU. […] Based on the fact that 9a had less cytotoxic effects on normal breast epithelial cells it was subjected to further studies.
(§2) The following cell lines were used for the screening stage, obtained from the American Type Culture Collection (ATCC, Manassas, VA, USA); SK-OV-3 (HTB-77), MCF-12A (ATCC CRL-10782), MDA-MB-231 (ATCC HTB-26), HCT-116 (CCL-247), RKO (CRL-2577) and sub-culturing of the above cell lines was conducted in 75 cm^2 flasks. The old culture media was removed and discarded after assessing the confluency of the cells and the cells were rinsed with 2–3 mL diluted trypsin (1×) (trypsin/EDTA solution consists of 0.025% trypsin and 0.01% EDTA in PBS), for about 5 minutes for complete detachment. The cells were observed under the inverted microscope until the cell layer is completely dispersed. 75 cm^2 flasks were prepared and 16 mL of DMEM media for SK-OV-3, MCF-7, MDA-MB-231, (DMEM 4500 mg glucose) and RPMI media for HCT-116 were added to each flask. The cells were aspirated gently and added to the flasks. DMEM 4500 mg/L high glucose with 10% FBS, 5% streptomycin and penicillin, RPMI 1640 (prepared by adding 5% heat-inactivated FCS and 2 mm glutamine) were used. DMEM was also used for MCF-12A cells with the addition of human epidermal growth factor 20 ng/mL, insulin 0.01 mg/mL and hydrocortisone 500 ng/mL.
(§3) The synthesized compounds were screened for their anti-proliferative activity using 5-FU (F6627-1G, Sigma-Aldrich, St. Louis, MO, USA) as reference compound. A concentration of 0.4% DMSO was used in all experiment after ensuring 100% viability of the cell lines with this concentration. A 25 mM stock concentration of all compounds was prepared for further studies and analysis.
(§4) Cells were trypsinized and placed in a 15 mL Falcon tube, the cells were centrifuged for 3 min at 1000 rpm. Trypsin is decanted using a sterile pipette and then the pellet is loosened by flicking the tube few times then 5–10 mL warm DMEM or RPMI were added to the Falcon tube and the pellet is resuspended. Cell count was done next by taking 10 μL of the suspension into the cell counting slide and read under 10× cells/mL. A cell stock of 50,000 cells/mL was prepared for the 96 wells. Cells (100 μL) were added to each well using a sterile pipette each time to ensure consistency. The experiment was planned ahead of time using excel sheet, 3–6 wells were reserved as blank media while 3–6 wells for vehicle (DMSO). The plate was incubated for 24 h for compound treatment step. DMEM media was used to prepare different dilutions of the compounds. The old DMEM media was removed from the wells using sterile pipette in the hood and the media was replaced with 100 μL media with each compound. The plate was incubated for 24 h. After 24 h incubation, WST-1 reagent (Sigma) was added to each well and then the plate was incubated for 1 h before measuring the absorbance using VICTOR™ Multilabel Plate Reader (Perkin Elmer, Beaconsfield, UK). The absorbance of the colored solution can be quantified by measuring at a certain wavelength (usually between 500–600 nm), in this experiment the first reading was conducted at 540 nm and the second reading at 690 nm for the reference wavelength. The percentage of cell viability was determined as the ratio of the absorbance of the sample vs the control. Three independent experiments were performed. […] 5-Florouracil (Sigma-Aldrich, F6627-1G) was used as reference standard.
(Tetrazolium dyes change colour on reduction, which living cells bring about.)

The test system of experiment [2] is MCF-7 human breast adenocarcinoma cell line. Put plainly: WST-1 cell viability assay, MCF-7. Conditions: for IC50: WST-1, 24 h treatment, mean ± S.D of three independent experiments. It counts as cell-based.
From the text: as §1, §2, §3, §4

The subject of experiment [3] is MDA-MB-231 human breast adenocarcinoma cell line. Put plainly: WST-1 cell viability assay, MDA-MB-231. Particulars: Homo sapiens, MDA-MB-231; WST-1, 24 h treatment, mean ± S.D of three independent experiments. The format is cell-based.
From the text: as §1, §2, §3, §4

Experiment [4] relates to MCF-7 cells. Put plainly: TUNEL assay. The format is cell-based, human. Conditions: 2 μM, 24 h, compared to control group. The text has this:
To ascertain induction of apoptosis of compound 9a on MCF-7 cells, the results were confirmed by immune histochemical analysis using a TUNEL assay. TUNEL assay involves labeling of the 3'-hydroxyl DNA ends generated during DNA fragmentation by means of rTdT and labeled dUTP. The localized fluorescence of apoptotic cells (labeled-dUTP) in a blue background (DAPI) for nuclei staining or green background (FITC) was visualized using fluorescence microscope.
For in situ detection of apoptotic cells, a terminal-deoxynucleotidyl transferase meditated nick end labeling (TUNEL) assay was performed using DeadEndTM fluorimetric tunnel system (Promega, Madison, WI, USA). Cells were cultured on 4-chamber slides (VWR, Radnor, PA, USA) at a density of 2 × 10^4 cells/ chamber. After treatment with compound 9a, cells were washed with phosphate buffer saline (PBS) and fixed by incubation in 4% paraformaldehyde (PFA) for 20 min at 4 °C, then permeabilized with 0.05% Triton X-100 for 5 min at 4 °C. The fixed cells were then incubated with […] dUTP in terminal deoxynucleotide transferase recombinant (rTdT)-catalyzed reaction and nucleotide mixture for 60 min at 37 °C in a humidified atmosphere and then immersed in stop/wash buffer for 15 min at room temperature. Cells were then washed with PBS to remove unincorporated fluorescein-12-dUTP. […]

As to `COc1ccc(-c2cc(-c3ccc(OC)c(OC)c3)c(C#N)c(OCC(=O)NNC(=O)c3ccccc3)n2)cc1OC` [Compound 9a, N'-[2-(3-cyano-4,6-bis(3,4-dimethoxyphenyl)pyridin-2-yloxy)acetyl]benzohydrazide], the IC50 in experiment [1] came out at 9.06 ± 0.24 µM; in experiment [2] (Homo sapiens, MCF7, 24 h), 2 µM; in experiment [2], 2.04 ± 0.13 µM; in experiment [3], 22.3 ± 0.88 µM. For the same compound, the viability at 2 µM in experiment [2] (Homo sapiens, MCF7, 2 μM, 24 h, WST-1, read-out: cell viability in MCF-7 cells) is approximately 50%. Besides, the TUNEL staining result in experiment [4] was “presence of nuclear condensation and TUNEL-positive cells”.

Usually IC50 stands for the concentration that inhibits the measured activity by half. Read a high IC50 as weaker potency. One may read the viability as a read-out of living cells in per cent, often relative to untreated cells.
